From ChEMBL document CHEMBL5604063, “ASAP - DENV-2 NS2B-NS3 protease fluorescence dose response” (2024) come the findings set out here.

For test [1], the target named is T1, Genome polyprotein (dengue virus type 2, UniProt P29990). It is filed as functional, Thailand/16681/1984.
The target of test [2] is T1, Genome polyprotein. It is filed as functional, Thailand/16681/1984. The source holds these as a separate data set.

The structures appear in SMILES notation. Where “and” joins values, the source holds several entries; their conditions need not be identical. Identical values can stand only once. Bounds are passed on as bounds.

T1 sequence (P29990 1346-1475 limits assumed): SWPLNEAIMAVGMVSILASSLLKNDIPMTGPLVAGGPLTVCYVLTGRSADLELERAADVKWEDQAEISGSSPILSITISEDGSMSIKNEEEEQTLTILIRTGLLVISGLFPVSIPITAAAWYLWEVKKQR
T1 sequence (P29990 1476-2093 limits assumed): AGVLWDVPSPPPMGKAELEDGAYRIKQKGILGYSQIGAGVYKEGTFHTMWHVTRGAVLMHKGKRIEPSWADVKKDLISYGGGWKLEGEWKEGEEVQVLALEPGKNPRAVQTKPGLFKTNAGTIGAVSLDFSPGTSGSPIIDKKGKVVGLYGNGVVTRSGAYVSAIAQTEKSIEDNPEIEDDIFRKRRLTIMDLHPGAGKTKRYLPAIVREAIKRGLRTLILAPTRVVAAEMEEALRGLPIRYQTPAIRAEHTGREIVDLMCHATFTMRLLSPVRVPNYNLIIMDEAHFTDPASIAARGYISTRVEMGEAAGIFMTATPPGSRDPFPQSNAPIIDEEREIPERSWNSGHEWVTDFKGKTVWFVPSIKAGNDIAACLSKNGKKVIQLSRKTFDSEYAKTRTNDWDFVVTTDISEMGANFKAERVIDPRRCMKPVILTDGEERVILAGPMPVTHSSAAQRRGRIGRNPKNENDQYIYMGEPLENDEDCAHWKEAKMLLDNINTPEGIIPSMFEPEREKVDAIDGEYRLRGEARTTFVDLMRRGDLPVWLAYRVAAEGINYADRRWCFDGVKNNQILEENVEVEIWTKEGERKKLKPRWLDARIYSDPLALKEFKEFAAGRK

For `CC(C)c1cc(-c2ccc3[nH]c(C(=O)O)cc3c2)cc(S(N)(=O)=O)c1`, the results for the half-inhibitory concentration (IC50) at Genome polyprotein [1] and at Genome polyprotein [2] were above 99.5 µM and above 100 µM, respectively.
Consider `CC(C)(C)OC(=O)NCc1cc(NC(=O)c2cc(Cl)cc(NC(=O)OCc3ccccc3)c2)cc(-c2nn[nH]n2)c1`, for which the values for the IC50 on Genome polyprotein [1] and against Genome polyprotein [2] were 7.46 µM and 10.7 µM, respectively.
The matching figures for `O=C(O)c1cc2cc(-c3cccc([C@H]4CNCCO4)c3)ccc2[nH]1`: above 99.5 µM and above 100 µM.
On to `CC(C)(C)c1cc(Br)cc(C(=O)Nc2ccc3c(c2)CNC3)c1`, for which the IC50 on Genome polyprotein [1] is above 99.5 µM; against Genome polyprotein [2], above 100 µM.
Consider `Cc1oc2nc(-c3cc(Cl)cc(NC(=O)OCc4ccccc4)c3)ccc2c1C(=O)O`, for which the IC50 against Genome polyprotein [1] stood at 16.6 µM; at Genome polyprotein [2], 13.7 µM.
For `O=C1CCc2c(cc(Cl)cc2-c2ccc3[nH]c(C(=O)O)cc3c2)N1`, the results for the IC50 against Genome polyprotein [1] and against Genome polyprotein [2] were above 99.5 µM and above 100 µM, respectively.
With `Clc1ccc2[nH]cc(Cc3ccc4c(c3)CNC4)c2c1`, the IC50 against Genome polyprotein [1] is above 99.5 µM; against Genome polyprotein [2], above 100 µM.
As to `O=C(O)c1nc(Cc2c[nH]c3ccc(Cl)cc23)c2ccccn12`, the IC50 on Genome polyprotein [1] is above 99.5 µM; against Genome polyprotein [2] it was above 100 µM.
Turning to `C=CC[C@H](Nc1ccc2c(c1)CNC2)c1cc(Cl)cc2[nH]ncc12`, the IC50 at Genome polyprotein [1] is 14 µM and 53.1 µM; against Genome polyprotein [2] it was above 100 µM.
Take `O=C(O)c1cc2cc(-c3cc(Cl)cc4c3CCNC4=O)ccc2[nH]1`: the 50% inhibitory concentration (IC50) on Genome polyprotein [1] was above 99.5 µM; against Genome polyprotein [2], above 100 µM.
With `O=C(O)c1cc2cc(-c3cccc([C@H]4COCCN4)c3)ccc2[nH]1`, the IC50 at Genome polyprotein [1] is above 99.5 µM; on Genome polyprotein [2], above 100 µM.
Turning to `CC(C)c1cc(Br)cc(C(=O)Nc2ccc3c(c2)CNC3)c1`, the results for the half-maximal inhibitory concentration (IC50) against Genome polyprotein [1] and against Genome polyprotein [2] were above 99.5 µM and above 100 µM, respectively.
For the compound `Cc1[nH]c2ccc(Cl)cc2c1Cc1ccc(-c2nnn[nH]2)cc1`, the values for the IC50 at Genome polyprotein [1] and against Genome polyprotein [2] were 42.6 µM and 21 µM, respectively.
Consider `O=C(Nc1ccc2c(c1)OCO2)c1cc(Cl)cc2[nH]ncc12`, for which the figures for the IC50 against Genome polyprotein [1] and against Genome polyprotein [2] were above 99.5 µM and above 100 µM, respectively.
For `Cn1ncc2c(C(=O)Nc3ccc4c(c3)CNC4)cc(Br)cc21`, the IC50 was above 99.5 µM against Genome polyprotein [1] and above 100 µM on Genome polyprotein [2].
On to `CNC(=O)[C@H](Nc1cc(CNC(=O)OC(C)(C)C)cc(C(=O)O)c1)c1cc(Cl)cc(C2CC2)c1`, for which the IC50 is above 99.5 µM on Genome polyprotein [1] and above 100 µM at Genome polyprotein [2].
The matching figures for `O=C(O)[C@H]1C[C@H](n2ccc(Cc3c[nH]c4ccc(Cl)cc34)n2)C1`: above 99.5 µM and above 100 µM.
For the compound `O=C(Nc1cccc([C@@H]2C[C@H]2C(=O)O)c1)c1cc(Cl)cc2[nH]ncc12`, the results for the IC50 at Genome polyprotein [1] and at Genome polyprotein [2] were above 99.5 µM and above 100 µM, respectively.
For the compound `C=CC[C@H](Nc1cccc(C2(C(=O)O)CCC2)c1)c1cc(Cl)cc(NC(=O)OCc2ccccc2)c1`, the IC50 turned out to be 16.7 µM against Genome polyprotein [1] and 17.2 µM on Genome polyprotein [2].
For the compound `c1ccc2c(Cc3ccc(-c4nnn[nH]4)cc3)c[nH]c2c1`, the IC50 was above 99.5 µM against Genome polyprotein [1] and above 100 µM at Genome polyprotein [2].
Consider `Nc1ccc(NC(=O)c2cc(Cl)cc3[nH]ncc23)cn1`, for which the IC50 against Genome polyprotein [1] was above 99.5 µM; on Genome polyprotein [2], above 100 µM.
As to `N#Cc1cc(-c2ccc3[nH]c(C(=O)O)cc3c2)cc(N2CCCC2)c1`, the IC50 on Genome polyprotein [1] is 63.4 µM; against Genome polyprotein [2], above 100 µM.
Taken in the same sequence, the figures for `CNc1c(-c2cc(Cl)cc(C3CC3)c2)nc2cc(C(=O)O)ccn12` were above 99.5 µM and above 100 µM.
For `O=C(O)c1nn(-c2ccccc2)cc1Cc1c[nH]c2ccc(Cl)cc12`, the figures for the IC50 at Genome polyprotein [1] and at Genome polyprotein [2] were 56.5 µM and 61 µM, respectively.
For `CNc1c(-c2cc(Cl)cc(C3CC3)c2)nc2cccc(C(=O)O)n12`, the IC50 is above 99.5 µM against Genome polyprotein [1] and above 100 µM at Genome polyprotein [2].
For the compound `O=C(O)c1ccc(Cc2c[nH]c3ccc(Cl)cc23)cc1`, the IC50 was above 99.5 µM against Genome polyprotein [1] and above 100 µM on Genome polyprotein [2].
Taken in the same sequence, the figures for `N#C[C@]1(Nc2cccc(-c3nn[nH]n3)c2)C(=O)Nc2ccc(Cl)cc21` were above 99.5 µM and above 100 µM.
The matching figures for `C=CC[C@H](Nc1cncc(Cl)c1)c1cccc(-c2nn[nH]n2)c1`: above 99.5 µM and above 100 µM.
On to `C=CC[C@H](Nc1cccc(Cl)c1)c1cccc(-c2nn[nH]n2)c1`, for which the IC50 against Genome polyprotein [1] is above 99.5 µM; on Genome polyprotein [2] it was 41.5 µM and 38.9 µM.
Regarding `O=C(O)CCCn1cnc(-c2cc(Cl)cc(NC(=O)OCc3ccccc3)c2)n1`, the IC50 against Genome polyprotein [1] is above 99.5 µM; against Genome polyprotein [2] it was above 100 µM.
Consider `N#C[C@H](Nc1cncc(-c2nn[nH]n2)c1)c1cc(Cl)cc(NC(=O)OCc2ccccc2)c1`, for which the IC50 is 18.7 µM against Genome polyprotein [1]; 11 µM and 10.8 µM on Genome polyprotein [2].
Take `N#C[C@H](c1cc(Cl)cc(C2CC2)c1)N1c2cnccc2C[C@H]1C(=O)O`: the IC50 against Genome polyprotein [1] was above 99.5 µM; on Genome polyprotein [2], above 100 µM.
Consider `NCc1cc(CCc2cc(Cl)cc(NC(=O)OCc3ccccc3)c2)cc(C(=O)O)c1`, for which the IC50 is above 99.5 µM against Genome polyprotein [1] and above 100 µM on Genome polyprotein [2].
Consider `O=C(Nc1cc(Cl)cc([C@H]2[C@H](CO)[C@@H]2c2cccc(-c3nn[nH]n3)c2)c1)OCc1ccccc1`, for which the concentration for half-maximal inhibition (IC50) against Genome polyprotein [1] is 25.2 µM; at Genome polyprotein [2] it was 11.3 µM and 13.5 µM.
`NCc1cc(Cl)cc(-c2ccc3[nH]c(C(=O)O)cc3c2)c1`: the IC50 was above 99.5 µM at Genome polyprotein [1] and above 100 µM against Genome polyprotein [2].
In the case of `N#C[C@H](Nc1cccn(CC(=O)O)c1=O)c1cc(Cl)cc(C2CC2)c1`, the IC50 at Genome polyprotein [1] was above 99.5 µM; against Genome polyprotein [2], above 100 µM.
In the case of `CNc1ncc(C(F)(F)F)cc1-c1ccc2[nH]c(C(=O)O)cc2c1`, the figures for the IC50 against Genome polyprotein [1] and against Genome polyprotein [2] were above 99.5 µM and above 100 µM, respectively.
Regarding `O=C(Nc1cc(Cl)cc(-c2cn(C3CCCC3)nc2C(=O)O)c1)OCc1ccccc1`, the IC50 is 34.3 µM against Genome polyprotein [1]; 42.7 µM and 31.7 µM on Genome polyprotein [2].
For `CNC(=O)[C@H](Nc1cc(CN)cc(C(=O)O)c1)c1cc(Cl)cc(C2CC2)c1`, the IC50 against Genome polyprotein [1] was above 99.5 µM; at Genome polyprotein [2], above 100 µM.
For `NCc1cc(CC(=O)O)cc(NC(=O)c2cc(Cl)cc(NC(=O)OCc3ccccc3)c2)c1`, the results for the IC50 against Genome polyprotein [1] and on Genome polyprotein [2] were above 99.5 µM and above 100 µM, respectively.
As for `COc1cc(-c2cc(Cl)cc(NC(=O)OCc3ccccc3)c2)c(OC)cc1CC(=O)O`, the IC50 was 32.8 µM against Genome polyprotein [1]; 18.4 µM and 18.3 µM against Genome polyprotein [2].
For `OCC#C[C@H](Nc1ccc2c(c1)CNC2)c1cc(Cl)cc2[nH]ncc12`, the concentration for half-maximal inhibition (IC50) at Genome polyprotein [1] was 25.1 µM; on Genome polyprotein [2], 92.7 µM and 63.7 µM.
With `CNC(=O)[C@H](Nc1cc(Cl)cc(C2CC2)c1)c1ccc(-c2nn[nH]n2)cc1`, the IC50 against Genome polyprotein [1] was above 99.5 µM; at Genome polyprotein [2], 99.6 µM and > 100 µM.
On to `CNC(=O)[C@H](Nc1cccc(C2(C(=O)O)CCC2)c1)c1cc(Cl)cc(C2CC2)c1`, for which the results for the IC50 on Genome polyprotein [1] and at Genome polyprotein [2] were above 99.5 µM and above 100 µM, respectively.
With `N#Cc1cc(Cl)cc(-c2ccc3[nH]c(C(=O)O)cc3c2)c1`, the IC50 was above 99.5 µM against Genome polyprotein [1]; > 100 µM and 82.1 µM on Genome polyprotein [2].
`C[C@@]1(c2cc(Cl)cc(NC(=O)OCc3ccccc3)c2)C[C@H]1c1cccc(CN)c1`: the IC50 against Genome polyprotein [1] was 88.1 µM; on Genome polyprotein [2] it was above 100 µM.
In the case of `O=C(O)c1cc2cc(-c3cc(Cl)cc(C4CC4)c3)ccc2[nH]1`, the IC50 against Genome polyprotein [1] was 15.7 µM; against Genome polyprotein [2] it was 11.4 µM and 11 µM.
For `C[C@](O)(Cc1cc(Cl)cc(NC(=O)OCc2ccccc2)c1)c1cccc(CN)c1`, the IC50 on Genome polyprotein [1] was above 99.5 µM; on Genome polyprotein [2], above 100 µM.
Regarding `CCc1cc(Br)cc2c(Cc3ccc(-c4nnn[nH]4)cc3)c[nH]c12`, the IC50 against Genome polyprotein [1] was 12 µM; on Genome polyprotein [2], 8.03 µM and 9.26 µM.
